{"source": "ChEMBL document CHEMBL1201862", "about": "“PubChem BioAssay data set” (2004)", "key": {"[1]": {"molecular_target": "T1, Calpain-2 catalytic subunit (Sus scrofa, UniProt P43367)", "T1 sequence (P43367 whole entry)": "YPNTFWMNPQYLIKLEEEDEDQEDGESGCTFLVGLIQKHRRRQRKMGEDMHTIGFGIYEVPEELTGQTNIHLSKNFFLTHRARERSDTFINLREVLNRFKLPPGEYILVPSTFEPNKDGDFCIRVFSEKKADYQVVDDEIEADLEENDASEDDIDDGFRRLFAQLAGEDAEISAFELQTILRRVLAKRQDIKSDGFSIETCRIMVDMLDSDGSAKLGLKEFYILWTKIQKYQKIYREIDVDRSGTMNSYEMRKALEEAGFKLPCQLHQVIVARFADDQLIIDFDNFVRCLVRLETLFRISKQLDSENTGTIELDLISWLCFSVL", "assay": "m-calpain protease blockers, concentration series – biochemical, fluorogenic peptide substrate, dose response (AID 1420)", "type": "functional"}, "[2]": {"molecular_target": "Induced myeloid leukemia cell differentiation protein Mcl-1 (Homo sapiens, UniProt Q07820)", "sequence (Q07820 whole entry)": "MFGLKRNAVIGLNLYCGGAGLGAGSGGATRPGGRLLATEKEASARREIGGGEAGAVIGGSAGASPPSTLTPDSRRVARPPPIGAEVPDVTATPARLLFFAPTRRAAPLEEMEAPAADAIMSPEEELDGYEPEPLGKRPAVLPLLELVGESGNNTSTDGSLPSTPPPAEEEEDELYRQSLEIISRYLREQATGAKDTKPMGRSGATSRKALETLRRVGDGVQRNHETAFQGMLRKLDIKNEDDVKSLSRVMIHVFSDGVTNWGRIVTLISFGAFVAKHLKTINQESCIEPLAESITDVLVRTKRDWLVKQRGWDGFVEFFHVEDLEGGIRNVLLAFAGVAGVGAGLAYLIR", "type": "functional"}, "[3]": {"assay": "viability loss in THP-1 monocytes – THP-1 cells, cytotoxicity control for Vif-APOBEC3G degradation inhibitor project, dose response (AID 1117359)", "type": "functional", "conditions": "THP-1"}, "[4]": {"molecular_target": "T2, Polyadenylate-binding protein 1 (Homo sapiens, UniProt P11940)", "T2 sequence (P11940 whole entry, the tested form may be a part)": "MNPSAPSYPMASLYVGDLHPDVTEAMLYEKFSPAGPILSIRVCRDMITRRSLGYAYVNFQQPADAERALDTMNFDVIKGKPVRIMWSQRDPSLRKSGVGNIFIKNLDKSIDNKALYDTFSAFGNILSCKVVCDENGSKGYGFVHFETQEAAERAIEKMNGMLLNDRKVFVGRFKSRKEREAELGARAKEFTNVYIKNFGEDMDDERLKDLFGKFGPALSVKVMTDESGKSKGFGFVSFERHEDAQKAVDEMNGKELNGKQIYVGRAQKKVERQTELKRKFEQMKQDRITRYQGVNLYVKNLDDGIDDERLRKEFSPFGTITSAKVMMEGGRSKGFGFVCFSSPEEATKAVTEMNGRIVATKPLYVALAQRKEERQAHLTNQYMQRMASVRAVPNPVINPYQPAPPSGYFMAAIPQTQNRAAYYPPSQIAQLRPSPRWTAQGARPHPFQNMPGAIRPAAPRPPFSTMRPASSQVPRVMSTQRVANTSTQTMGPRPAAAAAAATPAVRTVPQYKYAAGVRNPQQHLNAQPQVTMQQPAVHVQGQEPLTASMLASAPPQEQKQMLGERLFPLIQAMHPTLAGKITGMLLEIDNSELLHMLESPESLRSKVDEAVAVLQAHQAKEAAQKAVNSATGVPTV", "assay": "MLLE domain peptide-binding blockers, IC50 – biochemical, fluorescence polarization, FITC-PAM2 peptide, dose response (AID 602259)", "type": "functional", "conditions": "read-out: IC50_Mean"}, "[5]": {"molecular_target": "T2, Polyadenylate-binding protein 1", "assay": "MLLE binding blockers, Cy5 peptide tracer – biochemical, fluorescence polarization, Cy5-PAM2 peptide, secondary, miRNA deadenylation inhibitor project, dose response (AID 602260)", "type": "functional", "conditions": "read-out: IC50_Mean"}, "[6]": {"molecular_target": "Heat shock protein HSP 90-alpha (Homo sapiens, UniProt P07900)", "type": "functional, organism-based"}, "cells [7]": {"assay": "cells", "type": "functional, cell-based"}, "cells [8]": {"assay": "cells", "type": "functional, cell-based", "remark": "listed apart in the source"}, "[9]": {"assay": "HPDE-C7 pancreatic duct cell viability loss – fluorescence, HTS (AID 430)", "type": "functional, cell-based", "conditions": "Homo sapiens"}, "[10]": {"assay": "viability loss of HPDE-C7K cells – cell-based, fluorescence, HTS, primary screen (AID 431)", "type": "functional", "conditions": "Homo sapiens"}, "[11]": {"molecular_target": "DNA dC->dU-editing enzyme APOBEC-3A (Homo sapiens, UniProt P31941)", "sequence (P31941 whole entry)": "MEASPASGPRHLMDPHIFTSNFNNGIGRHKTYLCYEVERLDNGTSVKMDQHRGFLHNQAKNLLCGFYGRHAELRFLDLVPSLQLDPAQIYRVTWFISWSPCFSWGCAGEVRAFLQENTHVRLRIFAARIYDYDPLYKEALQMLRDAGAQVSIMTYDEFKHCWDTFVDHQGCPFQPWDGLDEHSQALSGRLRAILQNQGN", "assay": "A3A deaminase inhibition for selectivity – biochemical, dose response (AID 504722)", "type": "functional"}, "[12]": {"molecular_target": "DNA dC->dU-editing enzyme APOBEC-3G (Homo sapiens, UniProt Q9HC16)", "sequence (Q9HC16 whole entry)": "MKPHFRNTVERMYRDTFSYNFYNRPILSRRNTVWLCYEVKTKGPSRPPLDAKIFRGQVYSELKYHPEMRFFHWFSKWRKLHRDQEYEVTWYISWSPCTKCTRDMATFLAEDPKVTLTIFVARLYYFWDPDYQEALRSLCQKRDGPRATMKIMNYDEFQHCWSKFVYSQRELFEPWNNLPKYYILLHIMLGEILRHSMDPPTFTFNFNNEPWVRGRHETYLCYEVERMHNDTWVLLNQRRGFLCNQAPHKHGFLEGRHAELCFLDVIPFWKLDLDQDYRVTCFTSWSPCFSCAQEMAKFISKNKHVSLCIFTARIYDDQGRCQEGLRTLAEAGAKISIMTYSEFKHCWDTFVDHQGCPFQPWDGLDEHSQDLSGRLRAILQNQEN", "assay": "Dose Response confirmation of small molecule APOBEC3G DNA Deaminase Inhibitors via a fluorescence-based single-stranded DNA deaminase assay. [Related pubchem assays (depositor defined):AID493012, AID493028]", "type": "functional"}, "[13]": {"molecular_target": "FAD-linked sulfhydryl oxidase ALR (Homo sapiens, UniProt P55789)", "sequence (P55789 whole entry)": "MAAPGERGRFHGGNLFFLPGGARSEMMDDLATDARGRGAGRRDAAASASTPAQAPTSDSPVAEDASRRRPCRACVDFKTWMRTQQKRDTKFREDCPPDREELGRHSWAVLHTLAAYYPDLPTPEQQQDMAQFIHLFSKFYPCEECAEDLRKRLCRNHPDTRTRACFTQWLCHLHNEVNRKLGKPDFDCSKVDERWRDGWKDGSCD", "assay": "ALR-catalysed DTT oxidation blockers – biochemical, H2O2 detection, luminescence, cherry-pick, dose response (AID 493248)"}, "[14]": {"molecular_target": "T3, Mannose-6-phosphate isomerase (Homo sapiens, UniProt P34949)", "T3 sequence (P34949 whole entry)": "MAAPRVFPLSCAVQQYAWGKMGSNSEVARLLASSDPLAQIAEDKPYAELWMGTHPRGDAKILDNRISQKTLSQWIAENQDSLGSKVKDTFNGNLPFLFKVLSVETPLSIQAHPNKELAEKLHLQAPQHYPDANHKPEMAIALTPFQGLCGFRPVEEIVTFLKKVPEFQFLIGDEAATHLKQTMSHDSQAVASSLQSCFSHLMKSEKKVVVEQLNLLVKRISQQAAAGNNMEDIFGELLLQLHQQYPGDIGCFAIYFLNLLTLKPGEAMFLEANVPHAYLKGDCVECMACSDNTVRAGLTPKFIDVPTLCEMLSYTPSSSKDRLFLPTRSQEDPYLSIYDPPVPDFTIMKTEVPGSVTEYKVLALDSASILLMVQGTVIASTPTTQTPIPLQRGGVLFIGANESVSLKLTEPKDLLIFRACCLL", "assay": "MPI inhibition at elevated mannose 6-phosphate – biochemical, fluorescence intensity, high mannose 6-phosphate, primary screen (AID 1220)"}, "[15]": {"assay": "viability of HCT116 lacking mutant beta-catenin – cell-based, human colon tumor, dose response (AID 1045);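 also: cells exposed to compound for 60 hours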", "type": "functional"}, "[16]": {"assay": "viability of uninfected HEp-2 cells – cell-based, HTS, cytotoxicity control for RSV inhibitor project, dose response (AID 2410)", "type": "functional", "conditions": "human respiratory syncytial virus"}, "[17]": {"assay": "Trypanosoma cruzi growth suppression in host cells – NIH3T3 host cells, beta-gal luminescence, confirmation (AID 2044);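 also: intracellular parasites grown in NIH/3T3 mouse fibroblasts as host cells; luminescent beta-galactosidase reporter signal from transgenic T. cruzi replicating inside host cells; inhibitors lower the luminescence signal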", "type": "functional, cell-based"}, "[18]": {"assay": "NIH3T3 cell viability loss – ATP luminescence, mouse fibroblasts, counter-screen, dose response (AID 2010);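 also: cells exposed to compound for about 90 hours before reading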", "type": "functional, cell-based"}, "[19]": {"assay": "viability of PTEN-deleted HCT116 cells – cell-based, HCT116 PTEN knockout, dose response (AID 1047);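 also: cells exposed to compound for 60 hours before readout; potency for loss of cell viability measured by luminescence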", "type": "functional"}, "[20]": {"assay": "NIH-3T3 fibroblast cytotoxicity, dose response, cytotoxicity control, cell-based, fluorescence, Alamar Blue, secondary assay (AID 2327);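 also: NIH-3T3 mouse fibroblasts cultured with fluconazole at 8 µg/mL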", "type": "functional"}, "[21]": {"assay": "fluconazole-exposed Candida albicans growth modulators – fluorescence, retest, confirmation (AID 2467)", "type": "functional, cell-based"}, "HEK293 [22]": {"system": "HEK293", "assay": "cells", "conditions": "Homo sapiens"}, "HEK293 [23]": {"system": "HEK293", "assay": "cells", "conditions": "Homo sapiens", "remark": "listed apart in the source"}}, "note": "Active and inactive are the calls of the source."}
{"smiles": "CSc1ccccc1NC(=O)COc1ccccc1C", "values": [{"measurement": "IC50", "setting": "[1]", "result": "8.86 µM (not active)"}]}
{"smiles": "O=C(/C=C/c1cccs1)N1CCN(c2ccc(O)cc2)CC1", "values": [{"measurement": "IC50", "setting": "[2]", "result": "5.63 µM (active)"}, {"measurement": "CC50", "setting": "[3]", "result": "> 40 µM (active)"}]}
{"smiles": "CC(=O)NNC(=O)CN1C(=O)/C(=C/c2ccccc2)SC1=S", "values": [{"measurement": "IC50", "setting": "[4]", "result": "> 66 µM (inactive)"}, {"measurement": "IC50", "setting": "[5]", "result": "> 66 µM (inactive)"}]}
{"smiles": "Cc1ccc(NC(S)=NCC23C=CC(O2)C2C(=O)N(c4ccc(C)cc4)C(=O)C23)cc1", "note": "(configuration not stated)", "values": [{"measurement": "AC50", "setting": "[6]", "result": "4.6 µM (active)"}]}
{"smiles": "CC1Cc2ccccc2N1C(=O)COC(=O)Cn1nnc(-c2ccccc2)n1", "note": "(configuration not stated)", "values": [{"measurement": "IC50", "setting": "[1]", "result": "8.56 µM (not active)"}]}
{"smiles": "CCN(CC(=O)Nc1ccc2c(c1)OCCO2)CC(=O)Nc1ccc2c(c1)OCO2", "values": [{"measurement": "EC50", "setting": "cells [7]", "result": "> 350 µM (not active)"}, {"measurement": "EC50", "setting": "cells [8]", "result": "> 350 µM (not active)"}]}
{"smiles": "CCCc1cc(-c2[nH]ncc2-c2ccc3c(c2)OCCCO3)c(O)cc1O", "values": [{"measurement": "EC50", "setting": "[9]", "result": "8.22 µM (active)"}, {"measurement": "EC50", "setting": "[10]", "result": "8.05 µM (active)"}]}
{"smiles": "O=C(O)c1ccccc1NC(c1ccccc1)c1ccc2cccnc2c1O", "note": "(configuration not stated)", "values": [{"measurement": "AC50", "setting": "[6]", "result": "7.23 µM (active)"}]}
{"smiles": "Cc1[nH]n(C2=NCCS2)c(=O)c1N=Nc1ccccc1", "values": [{"measurement": "IC50", "setting": "[4]", "result": "> 66 µM (inactive)"}, {"measurement": "IC50", "setting": "[5]", "result": "> 66 µM (inactive)"}]}
{"smiles": "COc1cccc(/C=N/n2c(S)nnc2-c2cc(C)[nH]n2)c1OC", "values": [{"measurement": "IC50", "setting": "[11]", "result": "> 100 µM (inactive)"}, {"measurement": "IC50", "setting": "[12]", "result": "3.89 µM (active)"}, {"measurement": "AC50", "setting": "[13]", "result": "4.04 µM (active)"}]}
{"smiles": "Cn1cccc1/C=N/n1c(S)nnc1-c1ccco1", "values": [{"measurement": "IC50", "setting": "[11]", "result": "> 100 µM (inactive)"}, {"measurement": "IC50", "setting": "[12]", "result": "3.92 µM (active)"}]}
{"smiles": "O=C(N/N=C/c1ccc(N2CCOCC2)o1)c1cccc([N+](=O)[O-])c1", "values": [{"measurement": "IC50", "setting": "[14]", "result": "> 50 µM (not active)"}]}
{"smiles": "Cc1ccc2[nH]c(C)c(/C=N/Nc3nc4ccccc4s3)c2c1", "values": [{"measurement": "EC50", "setting": "[15]", "result": "19.7 µM (active)"}, {"measurement": "CC50", "setting": "[16]", "result": "14.6 µM (active)"}, {"measurement": "AC50", "setting": "[6]", "result": "5.3 µM (active)"}, {"measurement": "EC50", "setting": "[17]", "result": "2.24 µM (active)"}, {"measurement": "EC50", "setting": "[18]", "result": "> 60 µM (inconclusive)"}, {"measurement": "EC50", "setting": "[19]", "result": "18 µM (active)"}]}
{"smiles": "Sc1nnc(-c2ccccc2)n1/N=C/c1cccs1", "values": [{"measurement": "IC50", "setting": "[11]", "result": "> 100 µM (inactive)"}, {"measurement": "EC50", "setting": "[20]", "result": "> 160 µM (inactive)"}, {"measurement": "IC50", "setting": "[12]", "result": "1.81 µM (active)"}, {"measurement": "EC50", "setting": "[21]", "result": "2.56 µM (active)"}]}
{"smiles": "O=c1[nH]c(=O)n([C@@H]2O[C@H](CO)[C@@H](O)[C@H]2O)cc1F", "note": "[5-FLUOROURIDINE]", "values": [{"measurement": "EC50", "setting": "HEK293 [22]", "result": "> 59.6 µM (inactive)"}, {"measurement": "EC50", "setting": "HEK293 [23]", "result": "> 59.6 µM (inactive)"}]}
